The nature of series [1]: UV/visible absorption spectroscopy of Eu(III) complexes in TRIS buffer. As to conditions: for λ: absorption maximum. Format: physicochemical. The source says: Extinction Coefficient. A series of solutions of varied concentrations will be prepared from the solids based on mass and purity. The absorbance of each of these solutions at both 340 nm and at the appropriate acceptor wavelength will be measured and plotted according to Beer's Law (A=εcL where A is absorbance, ε is the extinction coefficient in M^−1 cm^−1, c is concentration, and L is path length in cm) with the fitted linear regression slope equal to […] on a plot of A as a function of C.
Each of the spectra have absorption maxima around 335-340 nm (FIG. 2). Those bands are composed of two electronic transitions; at higher energy, a purely π-π* transition and, at slightly lower energy (around ca. 320 nm), a π-π* transition with some n-π* character, as evidenced previously from TD-DFT calculations. […] This interaction gives maxima blue-shifting from 341 nm for [Eu(H(2,2)-1,2-HOPO)]^0 to 334 nm for [Eu(H(17O5,2)-1,2-HOPO)]^0 (as low as 332 nm for)[Eu(5LIN^Me-1,2HOPO)2]^0).

Series [2] is described as follows: Luminescence quantum yield, emission and brightness in aqueous 0.1 M TRIS buffer. It is filed as physicochemical. The conditions noted are these: for øTot: 0.1M TRIS buffer pH = 7.4; for Brightness: at maximum absorption, product of quantum yield and molar absorption coefficient, 0.1 M TRIS pH = 7.4; for overall quantum yield (in words): related to inner-sphere coordinated water. Here is the method:
Quantum Yield. Quantum yield will be measured using established methods. Fluorescence quantum yield Q are measured in diluted solution with an optical density lower than 0.1 using the following equation Qx/Qr=[Ar(λr)/Ax(λx)][nx^2/nr^2][Dx/Dr] were A is the absorbance at the excitation wavelength (λ), n the refractive index and D the integrated luminescence intensity. Subscripts “r” and “x” stand for reference and sample, respectively. References will be a quinine bisulfate in 1N sulfuric acid in aqueous solution (Qt=0.546)^1 and Ru(bpy)3 2C1 complexes in water solution (Qr=0.028)^2 for all complexes. A plot of integrated emission intensity (i.e. Dr) versus absorbance (i.e. Ar(λr)) yields a linear plot with a slope which can be equated to the reference quantum yield Qr. By analogy, for the unknown sample, a plot of integrated emission intensity (i.e. Dx) versus absorbance (i.e. Ax(λx)) yields a linear plot and Qx can then be evaluated. A minimum of at least two independent measurements will be averaged to derive a reliable value.

The nature of series [3]: Stability titration (pEu) by competitive batch titration using DTPA. Format: physicochemical. The conditions noted are these: for thermodynamic stability in aqueous solution: pH=7.4; for thermodynamic stability in aqueous solution / pEu value as compared to DTPA: in words; for pEu: competitive batch titration using DTPA in 0.1M TRIS pH = 7.4 and 0.1M KCl. How it is done:
Stability Titrations. The general procedure used to determine the pEu values of ligands was adapted from an already described study using Gd and are similar to that already reported for other complexes. Different volumes of a standardized DTPA stock solution were added to solutions of constant ligand, metal, and electrolyte concentrations. Concentrations of complexed ligand in each solution were determined by subtracting the remaining luminescence intensity after addition of DTPA to the initial luminescence intensity at identical pH and those concentrations were used as references for the analysis. Stability of compounds towards mM concentrations of EDTA and divalent cations will be assessed by incubation of the proposed molecules at nM concentration at room temperature in aqueous solutions of test ions. Time Resolved Fluorescent signal will be assessed at the outset of experiment and monitored over a minimum of 24 hours to determine signal change.

A short description of series [4]: Triplet excited state energy from phosphorescence of Gd complexes at 77K. It is filed as physicochemical. As to conditions: solid matrix (methanol/ethanol 1/4), using the Gd complexes. How it is done: Estimation of the energies of the ligand based triplet excited state were determined using the Gd(III) complexes. Gadolinium was chosen because it is a 4f^7 lanthanide cation having a similar 4f electronic configuration and size as the europium cation (4f^6), but lacking an accessible metal based low energy electronic excited state. At room temperature, only a broad weak emission centered between 380-400 nm can be seen for the Gd(III) complexes. […] At 77K, in solid matrix, an emission band at approx. 500 nm can be seen (FIG. 8). This emission, red-shifted compared to the singlet excited state, can be assigned to phosphorescence from the triplet excited state, lower in energy than the singlet excited state observed at room temperature. Selective time gated phosphorescence spectra (delay 0.1 ms) of the gadolinium complexes at 77K are depicted in FIG. 8.

Series [5] can be described thus: Calculation of Eu luminescence parameters (radiative lifetime, rate constants, efficiencies). Format: physicochemical. As to conditions: for metal centred efficiency: TRIS buffer; for η^Eu: efficiency of metal centred luminescence; for knr: non-radiative rate constant; for τrad: pure radiative luminescence lifetime, aqueous TRIS pH = 7.4; for kr: radiative rate constant; for η^sens: sensitization efficiency. How it is done: In this equation, the ηISC ηET term is termed the sensitization efficiency, ηsens (ηsens=ηISC ηET). All the luminescence parameters τR (the pure radiative luminescence lifetime), kR and knR (the radiative and non-radiative constant rate) can be deduced. These parameters were calculated for five of the octadentate complexes and the model complex that present only one species in solution at pH=7.4 and are reported in Table 6.

A short description of series [6]: Luminescence lifetimes (TRIS buffer, deuterated water, 77K) and inner sphere water number q. The conditions noted are these: for τ^D / τ (77K): first component; for q / q, second species: inner sphere water molecules; for q: first species.
Method: Fluorescent decay signals can be acquired using an IBH DataStation Hub photon counting module and data analysis performed using the commercially available DAS 6 decay analysis software package from HORIBA Jobin Yvon IBH. Goodness of fit will be assessed by minimizing the reduced chi squared function, χ2, and a visual inspection of the weighted residuals. Each trace will use at least 10,000 points and the reported lifetime values result from at least three independent measurements.
In addition to the steady state emission spectra, the luminescence quantum yields and luminescence lifetimes of the Eu(III) complexes were also measured in aqueous solution with 0.1 M TRIS buffer pH=7.4 and in deuterated solution to estimate the number of inner sphere water molecule (i.e. q) using the improved Horrock's equations.
Luminescence lifetimes were also determined at 77K, in a solid matrix (Table 5), which have allowed us to determine whether back energy transfer between the donor triplet excited state and the acceptor manifold excited state of the lanthanide is present, or alternately whether quenching via low lying LMCT state occurs.
[7] abbreviates: aqueous TRIS pH = 7.4, complexes with only one species.
Setting [8] is: solid matrix at 77K (methanol/ethanol 1/4).
Where [9] appears, read: extinction coefficient, in M-1·cm-1.

For `O=C(NCCN(CCNC(=O)c1cccc(=O)n1O)CCOCCOCCOCCOCCN(CCNC(=O)c1cccc(=O)n1O)CCNC(=O)c1cccc(=O)n1O)c1cccc(=O)n1O.[Eu]` [[Eu(H(14O4,2)-1,2HOPO)]^0], in series [1] (TRIS buffer pH = 7.4), the ε is listed as 15,200 M^−1 · cm^−1 and the “λ^maxabs” value stood at 336 nm. In series [2], the øTot worked out at 0.192 and the Brightness turned out to be 2920 M⁻¹ cm⁻¹. In series [2] (setting [7]), this molecule had a ϕTot of 0.192. For the same molecule, the “thermodynamic stability in aqueous solution” value in series [3] is recorded as “high thermodynamic stabilities”. For the same molecule, the “T0-0 (triplet excited state energy)” value in series [4] is reported as 22,020 cm^−1. Besides, in series [5], the metal centred efficiency result is on record as “around 50%”, the “η^Eu” value is given as 0.528, the knr is 674 s⁻¹ and the τrad is recorded as 1326 μs. Besides, in series [5], the kr is 754 s⁻¹ and the “η^sens” value was 0.364. The τ in series [6] (aqueous TRIS pH = 7.4) was 700 μs. The “τ^D” value in series [6] (deuterated solution) was 961 μs. The q in series [6] (improved Horrock's equations) was 0.1. In series [6] (setting [8]), the “τ (77K)” value is reported as 819 μs.
As for `O=C(NCCN(CCNC(=O)c1cccc(=O)n1O)CCOCCN(CCNC(=O)c1cccc(=O)n1O)CCNC(=O)c1cccc(=O)n1O)c1cccc(=O)n1O.[Eu]` [Eu(H5-1)], in series [1] (TRIS buffer pH = 7.4), the ε was 15,900 M^−1 · cm^−1 and the “λ^maxabs” value was determined as 337 nm. In series [1], this molecule displayed a λ of 337 nm. The ε in series [1] (setting [9]) is given as 15,900. In series [2], the øTot was 0.067, the Brightness stood at 1065 M⁻¹ cm⁻¹ and the “overall quantum yield (in words)” value is given as “low quantum yields”. Also, in series [2] (aqueous quantum yield), the ϕTot is given as 0.067. In series [3], the pEu is 19.2 and the “pEu value as compared to DTPA” value is “increased”. For the same molecule, the “T0-0 (triplet excited state energy)” value in series [4] is reported as 22,000 cm^−1. Moreover, the “τ^D” value in series [6] (deuterated solution) is given as 825; μs. Moreover, in series [6] (deuterated solution, second component), the “τ^D, second component” value is listed as 462 μs. In series [6] (deuterated water), the “τ^D” value is reported as 825 μs. The “τ^D, second component” value in series [6] (deuterated water, second component) was 438 μs. The same molecule had a τ in series [6] (first (longer) component) of 651 μs. Further, the q in series [6] (improved Horrock's equations) was 0;. Besides, in series [6], the q turned out to be 0 and the “q, second species” value was 0.8. In series [6] (listed as [Eu(H(5O,2)-1,2HOPO)]^0), the “q, second species” value is recorded as 1.1. In addition, the “τ, second component” value in series [6] (second (shorter) component) came out at 304 μs. In addition, in series [6] (setting [8]), the “τ (77K)” value was 823; μs. Further, in series [6] (solid matrix at 77K (methanol/ethanol 1/4), second component), the “τ (77K), second component” value came to 608 μs.
Regarding `O=C(NCCN(CCNC(=O)c1cccc(=O)n1O)CCOCCOCCOCCOCCOCCN(CCNC(=O)c1cccc(=O)n1O)CCNC(=O)c1cccc(=O)n1O)c1cccc(=O)n1O.[Eu]` [[Eu(H(17O5,2)-1,2HOPO)]^0], in series [1] (TRIS buffer pH = 7.4), the ε is given as 15,000 M^−1 · cm^−1 and the “λ^maxabs” value came out at 336 nm. Besides, the “λ^maxabs” value in series [1] (TRIS buffer pH = 7.4, listed as [Eu(H(17O5,2)-1,2-HOPO)]^0) worked out at 334 nm. In series [2], this molecule showed a øTot of 0.196 and a Brightness of 2940 M⁻¹ cm⁻¹. The øTot in series [2] (listed as [Eu(H(17O5,2)-1,2-HOPO)]^0) worked out at 0.197. This molecule came in with a ϕTot in series [2] (setting [7]) of 0.196. In addition, the “thermodynamic stability in aqueous solution” value in series [3] is reported as “high thermodynamic stabilities”. In addition, in series [4], the “T0-0 (triplet excited state energy)” value is reported as 21,690 cm^−1. Further, in series [5], the metal centred efficiency entry is “around 50%”, the “η^Eu” value is 0.522, the knr is 679 s⁻¹ and the τrad is 1348 μs. In addition, in series [5], the kr was 742 s⁻¹ and the “η^sens” value is on record as 0.375. In addition, the τ in series [6] (aqueous TRIS pH = 7.4) is reported as 704 μs. Besides, the “τ^D” value in series [6] (deuterated solution) amounted to 962 μs. The molecule also came in with a q in series [6] (improved Horrock's equations) of 0.1. Further, the “τ (77K)” value in series [6] (setting [8]) is on record as 826 μs.
On to `O=C(NCCN(CCNC(=O)c1cccc(=O)n1O)CCOCCOCCN(CCNC(=O)c1cccc(=O)n1O)CCNC(=O)c1cccc(=O)n1O)c1cccc(=O)n1O` [Eu(H8-2)], for which, in series [1] (TRIS buffer pH = 7.4), the ε is given as 15,350 M^−1 · cm^−1 and the “λ^maxabs” value is recorded as 336 nm. The λ in series [1] was found to be 336 nm. The ε in series [1] (setting [9]) was 15,350. In series [2], the øTot is on record as 0.112, the Brightness worked out at 1720 M⁻¹ cm⁻¹ and the “overall quantum yield (in words)” value is given as “comparatively high quantum yields”. In addition, the ϕTot in series [2] (setting [7]) is listed as 0.112. In series [2] (aqueous quantum yield), this molecule displayed a ϕTot of 0.112. In series [3], the pEu is 20.4 and the “pEu value as compared to DTPA” value was “increased”. Also, the “T0-0 (triplet excited state energy)” value in series [4] is 22,320 cm^−1. Besides, in series [5], the sensitization process efficiency is 28.4%, the “η^Eu” value is listed as 0.395, the knr is 869 s⁻¹ and the τrad is 1770 μs. Moreover, in series [5], the kr is 566 s⁻¹ and the “η^sens” value was 0.284. The τ in series [6] (aqueous TRIS pH = 7.4) amounted to 697 μs. Besides, in series [6] (deuterated solution), the “τ^D” value was determined as 913 μs. Further, the “τ^D” value in series [6] (deuterated water) is on record as 913 μs. Further, the τ in series [6] (first (longer) component) came out at 697 μs. The same molecule had a q in series [6] (improved Horrock's equations) of 0. In addition, in series [6] (setting [8]), the “τ (77K)” value is recorded as 748 μs.

The values are drawn from patent US10352938B2, “Macrocyclic HOPO chelators” (LUMIPHORE, INC., priority 2009, dated 2019).
